Data published in patent US10807956B2, “Histone demethylase inhibitors” (CELGENE QUANTICEL RESEARCH, INC., priority 2012, dated 2020).
pIC50: −log10 of the molar value.

Molecular target: JMJD2C (Homo sapiens (Human), UniProt Q9H3R0)
Assay: JMJD2C TR-FRET enzyme inhibition assay
Assay type: biochemical
Details: H3K9me3-biotin peptide
From the text: This assay determines the ability of a test compound to inhibit Jarid1A, Jarid1B, and JMJD2C demethylase activity. Baculovirus expressed Jarid1A (GenBank Accession # NM_001042603, AA1-1090) was purchased from BPS Bioscience (Cat #50110). Baculovirus expressed Jarid1B (GenBank Accession # NM_006618, AA 2-751) was purchased from BPS Bioscience (Cat #50121) or custom made by MolecularThroughput. Baculovirus-expressed JMJD2C (GenBank Accession # BC143571, AA 2-372) was purchased from BPS Bioscience (Cat #50105).
The ability of test compounds to inhibit the activity of JMJD2C was determined in 384-well plate format under the following reaction conditions: 0.3 nM JMJD2C, 300 nM H3K9me3-biotin labeled peptide (Anaspec cat #64360), 2 μM alpha-ketoglutaric acid in assay buffer of 50 mM HEPES, pH7.3, 0.005% Brij35, 0.5 mM TCEP, 0.2 mg/ml BSA, 50 μM sodium L-ascorbate, and 2 μM ammonium iron(II) sulfate. Reaction product was determined quantitatively by TR-FRET after the addition of detection reagent Phycolink Streptavidin-allophycocyanin (Prozyme) and Europium-anti-di-methylated histone H3 lysine 9 (H3K9me2) antibody (PerkinElmer) in the presence of 5 mM EDTA in LANCE detection buffer (PerkinElmer) at a final concentration of 50 nM and 1 nM, respectively.
The assay reaction was initiated by the following: 2 μl of the mixture of 900 nM H3K9me3-biotin labeled peptide and 6 μM alpha-ketoglutaric acid with 2 μl of 11-point serial diluted inhibitor in 3% DMSO were added to each well of the plate, followed by the addition of 2 μl of 0.9 nM JMJD2C to initiate the reaction. The reaction mixture was incubated at room temperature for 30 min, and terminated by the addition of 6 μl of 5 mM EDTA in LANCE detection buffer containing 100 nM Phycolink Streptavidin-allophycocyanin and 2 nM Europium-anti-H3K9me2 antibody. Plates were read by EnVisionMultilabel Reader in TR-FRET mode (excitation at 320 nm, emission at 615 nm and 665 nm) after 1 hr incubation at rt. A ratio was calculated (665/615) for each well and fitted to determine inhibition constant (IC50).

Sequence of JMJD2C (Q9H3R0 2-372): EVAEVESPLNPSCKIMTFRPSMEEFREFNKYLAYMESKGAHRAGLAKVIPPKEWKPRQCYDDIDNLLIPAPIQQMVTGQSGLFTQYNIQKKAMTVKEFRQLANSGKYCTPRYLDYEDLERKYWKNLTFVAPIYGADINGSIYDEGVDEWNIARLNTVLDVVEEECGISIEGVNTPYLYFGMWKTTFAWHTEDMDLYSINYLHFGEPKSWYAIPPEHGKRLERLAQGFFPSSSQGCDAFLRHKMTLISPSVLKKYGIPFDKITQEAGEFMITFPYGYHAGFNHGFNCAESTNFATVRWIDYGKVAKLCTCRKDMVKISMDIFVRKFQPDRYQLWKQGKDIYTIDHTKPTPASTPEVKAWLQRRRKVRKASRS

Substance | pIC50
3-{[(6-chloro-1,2,3,4-tetrahydronaphthalen-1-yl)methyl]- amino}pyridine-4-carboxylic acid [Example 68] | 6.00 to 7.00
3-{[(6-chloro-1-hydroxy-1,2,3,4-tetrahydronaphthalen-1- yl)methyl]amino}pyridine-4-carboxylic acid [Example 67] | 6.00 to 7.00
3-{[(7-fluoro-3,4-dihydro-2H-chromen-4-yl)methyl]- amino}pyridine-4-carboxylic acid [Example 65] | > 7.00
